Results published in patent publication US5105020A, “Cycloalkane derivatives” (Imperial Chemistries Industries PLC, priority 1988, dated 1992).

Columns and labels:
5-LO [1] = assay: Test b): heparinised human blood, A23187 challenge, LTB4 radioimmunoassay; assay type: cell-based
Description: (§1) b) An in vitro assay system involving incubating a test compound with heparinised human blood, prior to challenge with the calcium ionophore A23187 and then indirectly measuring the inhibitory effects on 5-LO by assaying the amount of […] using the specific radioimmunoassay described by Carey and Forder (F. Carey and R.A. Forder, Brit. J. Pharmacol. 1985, 84, 34P) which involves the use of a protein-LTB4 conjugate produced using the procedure of Young et alia (Prostaglandins, 1983, 26(4), 605-613). The effects of a test compound on the enzyme cyclooxygenase (which is involved in the alternative metabolic pathway for arachidonic acid and gives rise to prostaglandins, thromboxanes and related metabolites) may be measured at the same time using the specific radioimmunoassay for thromboxane B2 (TxB2) described by Carey and Forder (see above). This test provides an indication of the effects of a test compound against 5-LO and also cyclooxygenase in the presence of blood cells and proteins. It permits the selectivity of the inhibitory effect on 5-LO or cyclooxygenase to be assessed.

5-LO [2] = assay: Test c): ex vivo assay after oral administration, A23187 challenge of blood, LTB4 radioimmunoassay; assay type: in vivo
Description: c) An ex vivo assay system, which is a variation of test b) above, involving administration of a test compound (usually orally as the suspension produced when a solution of the test compound in dimethylsulphoxide is added to carboxymethylcellulose), blood collection, heparinisation, challenge with A23187 and radioimmunoassay of LTB4 and TxB2. This test provides an indication of the bioavailability of a test compound as an inhibitor of 5-LO or cyclooxygenase.

cyclooxygenase = assay: Test b): heparinised human blood, A23187 challenge, TxB2 radioimmunoassay; assay type: cell-based
Description: as §1

CO[C@@H]1CCC[C@]1(OC)c1cccc(OCc2ccc3ccccc3c2)c1 (relative stereo) [trans-1,2-dimethoxy-1-[3-(naphth-2-ylmethoxy)phenyl]cyclopentane]
IC50 (5-LO [1]): 200 nM
ED50 (5-LO [2]): < 100 mg/kg
IC50 (cyclooxygenase): > 40000 nM
